Measured values as given in PMC4965013, “Open Source Drug Discovery with the Malaria Box Compound Collection for Neglected Diseases and Beyond” (PLoS Pathogens, 2016).

Tests used:
[1] = test system: P. falciparum 3D7 trophozoites; test: Metabolomic fingerprint profiling LC-MS; format: cell-based, Plasmodium falciparum; design: UDP-D-glucose / ADP-D-glucose: unit not given here; details: for Acetyllysine / N-acetyl-L-ornithine / N-carbamoyl-L-aspartate / NADPH / dAMP / dCMP / dTDP / dTMP / dTTP / dihydroorotate / orotate / DLH / DLS/SDL/SID / PD / PEE / PVNF / 3-phosphoglycerate / ADP-D-glucose / ATP / CDP / D-sedoheptulose-1/7-phosphate / FAD / GMP / NAD+ / NADP+ / Octoluse Bisphosphate / Pyroglutamic acid / UDP-D-glucose / UDP-D-glucuronate / UDP-N-acetyl-glucosamine / UDP / UMP / UTP / a-ketoglutarate / citrate/isocitrate / cytidine / dATP / dGMP/AMP / fumarate / glucose-1/6-phosphate / glycerate / guanine / guanosine / hypoxanthine / indole / inosine / nicotinate / ornithine / phosphoenolpyruvate / pyruvate / ribose-phosphate / sarcosine/alanine / sn-glycerol-3-phosphate / succinate/methylmalonic acid / uridine / xanthosine: S2 Table Metabolomics; for Acetyllysine: metabolite Acetyllysine; for N-acetyl-L-ornithine: metabolite N-acetyl-L-ornithine; for N-carbamoyl-L-aspartate: metabolite N-carbamoyl-L-aspartate; for NADPH: metabolite NADPH; for dAMP: metabolite dAMP; for dCMP: metabolite dCMP; for dTDP: metabolite dTDP; for dTMP: metabolite dTMP; for dTTP: metabolite dTTP; for dihydroorotate: metabolite dihydroorotate; for orotate: metabolite orotate; for DLH: peptide DLH; for DLS/SDL/SID: peptide DLS/SDL/SID; for PD: peptide PD; for PEE: peptide PEE; for PVNF: peptide PVNF; for 3-phosphoglycerate: metabolite 3-phosphoglycerate; for ADP-D-glucose: metabolite ADP-D-glucose; for ATP: metabolite ATP; for CDP: metabolite CDP; for CDP / D-sedoheptulose-1/7-phosphate / GMP / Octoluse Bisphosphate / UDP / UMP / UTP / citrate/isocitrate / dGMP/AMP / fumarate / glucose-1/6-phosphate / glycerate / guanine / guanosine / inosine / pyruvate / sarcosine/alanine / succinate/methylmalonic acid / uridine / xanthosine: change in metabolite level after compound treatment; for D-sedoheptulose-1/7-phosphate: metabolite D-sedoheptulose-1/7-phosphate; for FAD: metabolite FAD; for GMP: metabolite GMP; for NAD+: metabolite NAD+; for NADP+: metabolite NADP+; for Octoluse Bisphosphate: metabolite Octoluse Bisphosphate; for Pyroglutamic acid: metabolite Pyroglutamic acid; for UDP-D-glucose: metabolite UDP-D-glucose; for UDP-D-glucuronate: metabolite UDP-D-glucuronate; for UDP-N-acetyl-glucosamine: metabolite UDP-N-acetyl-glucosamine; for UDP: metabolite UDP; for UMP: metabolite UMP; for UTP: metabolite UTP; for a-ketoglutarate: metabolite a-ketoglutarate; for citrate/isocitrate: metabolite citrate/isocitrate; for cytidine: metabolite cytidine; for dATP: metabolite dATP; for dGMP/AMP: metabolite dGMP/AMP; for fumarate: metabolite fumarate; for glucose-1/6-phosphate: metabolite glucose-1/6-phosphate; for glycerate: metabolite glycerate; for guanine: metabolite guanine; for guanosine: metabolite guanosine; for hypoxanthine: metabolite hypoxanthine; for indole: metabolite indole; for inosine: metabolite inosine; for 2_3-Diphosphoglyceric acid / 4-phosphopantothenate / 6-phospho-D-gluconate / FMN / IMP / Pyrophosphate / Sedoheptoluse bisphosphate / cyclic-AMP / glutathione disulfide / lactate / myo-inositol: metabolite level change after treatment; for nicotinate: metabolite nicotinate; for ornithine: metabolite ornithine; for phosphoenolpyruvate: metabolite phosphoenolpyruvate; for pyruvate: metabolite pyruvate; for ribose-phosphate: metabolite ribose-phosphate; for sarcosine/alanine: metabolite sarcosine/alanine; for sn-glycerol-3-phosphate: metabolite sn-glycerol-3-phosphate; for succinate/methylmalonic acid: metabolite succinate/methylmalonic acid; for uridine: metabolite uridine; for xanthosine: metabolite xanthosine
[2] = test system: P. falciparum; test: EC50 listed in S2 Table Metabolomics (used to set the concentration tested); format: cell-based; details: Plasmodium falciparum; EC50 used for Factor_XEC50 in metabolomics; read-out: EC50_nM

SMILES: CCOC(=O)c1cnc2ccc(CC)cc2c1O [MMV007116]
- Acetyllysine [1]: -0.1012
- N-acetyl-L-ornithine [1]: 0.0981
- N-carbamoyl-L-aspartate [1]: 2.971
- NADPH [1]: -0.5029
- dAMP [1]: -0.4219
- dCMP [1]: 0.4317
- dTDP [1]: -1.171
- dTMP [1]: -0.8513
- dTTP [1]: -0.7029
- dihydroorotate [1]: 3.788
- orotate [1]: -1.509
- DLH [1]: 0.2963
- DLS/SDL/SID [1]: 0.1623
- PD [1]: 0.3262
- PEE [1]: 0.1615
- PVNF [1]: 0.2601
- 3-phosphoglycerate [1]: -0.1794
- ADP-D-glucose [1]: 0.1742
- ATP [1]: 0.4661
- CDP [1]: -0.7049
- D-sedoheptulose-1/7-phosphate [1]: -0.06275
- FAD [1]: 0.2601
- GMP [1]: -0.15
- NAD+ [1]: 0.1229
- NADP+ [1]: 0.2138
- Octoluse Bisphosphate [1]: 0.1604
- Pyroglutamic acid [1]: 0.5147
- UDP-D-glucose [1]: 0.04103
- UDP-D-glucuronate [1]: 0.1753
- UDP-N-acetyl-glucosamine [1]: -0.1032
- UDP [1]: -1.173
- UMP [1]: -0.7684
- UTP [1]: -0.9344
- a-ketoglutarate [1]: -0.7057
- citrate/isocitrate [1]: -0.7167
- cytidine [1]: 0.3209
- dATP [1]: 0.325
- dGMP/AMP [1]: -0.3675
- fumarate [1]: 0.4728
- glucose-1/6-phosphate [1]: 0.07021
- glycerate [1]: -0.09904
- guanine [1]: -0.05466
- guanosine [1]: -0.14
- hypoxanthine [1]: -0.2065
- indole [1]: -0.3037
- inosine [1]: -0.2408
- 2_3-Diphosphoglyceric acid [1]: 0.3408
- 4-phosphopantothenate [1]: -0.2638
- 6-phospho-D-gluconate [1]: 0.07683
- FMN [1]: -0.08712
- IMP [1]: -0.2111
- Pyrophosphate [1]: 0.42
- Sedoheptoluse bisphosphate [1]: 0.05124
- cyclic-AMP [1]: 0.01532
- glutathione disulfide [1]: 0.02122
- lactate [1]: -0.5604
- myo-inositol [1]: -0.5893
- nicotinate [1]: -0.6598
- ornithine [1]: -0.07172
- phosphoenolpyruvate [1]: -0.09558
- pyruvate [1]: -0.6031
- ribose-phosphate [1]: 0.2426
- sarcosine/alanine [1]: -0.04206
- sn-glycerol-3-phosphate [1]: 0.1096
- succinate/methylmalonic acid [1]: 0.07837
- uridine [1]: -1.178
- xanthosine [1]: 0.04101
- EC50 [2]: 351 nM

SMILES: Cc1ccc(-c2cc3c(SCC(=O)Nc4cc(C(F)(F)F)ccc4Cl)nccn3n2)cc1 [MMV396680]
- Acetyllysine [1]: -0.4906
- N-acetyl-L-ornithine [1]: -0.1465
- N-carbamoyl-L-aspartate [1]: 2.456
- NADPH [1]: 0.3651
- dAMP [1]: -0.4552
- dCMP [1]: -0.05341
- dTDP [1]: -1.136
- dTMP [1]: -1.083
- dTTP [1]: -1.158
- dihydroorotate [1]: 3.543
- orotate [1]: -0.9159
- DLH [1]: -0.3949
- DLS/SDL/SID [1]: -0.337
- PD [1]: -0.05706
- PEE [1]: -0.2567
- PVNF [1]: -0.5778
- 3-phosphoglycerate [1]: -0.2595
- ADP-D-glucose [1]: -0.2217
- ATP [1]: -0.3128
- CDP [1]: -0.9741
- D-sedoheptulose-1/7-phosphate [1]: -0.1867
- FAD [1]: 0.01886
- GMP [1]: 0.2283
- NAD+ [1]: 0.1566
- NADP+ [1]: -0.1345
- Octoluse Bisphosphate [1]: -0.3002
- Pyroglutamic acid [1]: -0.01833
- UDP-D-glucose [1]: -0.08257
- UDP-D-glucuronate [1]: -0.2581
- UDP-N-acetyl-glucosamine [1]: -0.1134
- UDP [1]: -1.014
- UMP [1]: -0.7737
- UTP [1]: -1.292
- a-ketoglutarate [1]: -0.4564
- citrate/isocitrate [1]: -0.8044
- cytidine [1]: 0.4371
- dATP [1]: 0.3628
- dGMP/AMP [1]: -1.368
- fumarate [1]: -0.8765
- glucose-1/6-phosphate [1]: 0.09137
- glycerate [1]: -0.2491
- guanine [1]: 0.04089
- guanosine [1]: -0.01605
- hypoxanthine [1]: -0.1601
- indole [1]: -0.003888
- inosine [1]: -0.03937
- 2_3-Diphosphoglyceric acid [1]: -0.2285
- 4-phosphopantothenate [1]: -0.2363
- 6-phospho-D-gluconate [1]: 0
- FMN [1]: -0.1967
- IMP [1]: -0.1897
- Pyrophosphate [1]: 0.5607
- Sedoheptoluse bisphosphate [1]: -0.2656
- cyclic-AMP [1]: -0.07723
- glutathione disulfide [1]: -0.04075
- lactate [1]: -0.4254
- myo-inositol [1]: -0.7104
- nicotinate [1]: -0.4764
- ornithine [1]: -0.2162
- phosphoenolpyruvate [1]: -0.2321
- pyruvate [1]: -0.2774
- ribose-phosphate [1]: -0.04672
- sarcosine/alanine [1]: -0.2257
- sn-glycerol-3-phosphate [1]: -0.3003
- succinate/methylmalonic acid [1]: 0.02717
- uridine [1]: -0.7719
- xanthosine [1]: -0.1274
- EC50 [2]: 92.8 nM
